Reference: patent US20210230131A1, “POLYAMINO BIARYL COMPOUNDS AND THEIR USE” (INSERM (INSTITUT NATIONAL DE LA SANTÉ ET DE LA RECHERCHE …, priority 2018, published 2021)

Columns and labels:
CTFα = assay: APP carboxy-terminal fragment αCTF by Western blot in SY5Y-APP695WT cells; type: cell-based, human; conditions: CTFα increase compared to chloroquine ([CTF]compound/[CTF]CQ) at 3 μM; mean of at least three experiments
Description: (§1) Antibodies. Primary antibodies used in this study for western-blot analysis included a homemade rabbit antiserum against the last 17 amino acids of human APP protein sequence, named APP-Cter-C17 (1/5000 in TBS-M). Anti-β-actin (1/10 000 in TBS-M) was obtained from Sigma. Anti-LC3B (1/2000 in TBS-BSA) and anti-p62/SQSTM1 (1/2000 in TBS-M) antibodies were purchased from Cell Signaling Technology. Secondary antibodies (peroxidase-labeled goat anti-rabbit IgG, 1/5000 or peroxidase-labeled horse anti-mouse IgG, 1/50000 in TBS-T) were obtained from Vector Laboratories.
(§2) Cell culture and treatment. The human neuroblastoma cell line SY5Y-APP^695WT was maintained in Dulbecco's modified Eagle medium (DMEM, high glucose, pyruvate—GIBCO by Life Technologies) supplemented with 10% foetal bovine serum, 2 mM L-glutamine, 1 mM non-essential amino acids and penicillin/streptomycin (GIBCO by Life Technologies) at 37° C. in a 5% CO2 humidified incubator. SY5Y-APP^695WT cells were maintained in 75 cm^2 culture flasks (Falcon) with supplemented DMEM medium until they reached 80% of confluence 24 h before treatment.
(§3) For drug treatment, cells were plated at a rate of 5·10^5 cells per well into 12-well plates (Falcon) and cultured with 1 mL supplemented DMEM cell medium for 24 h before drug exposure. The following day, cell medium was replaced with fresh medium containing drugs diluted at the indicated concentrations. Cells were treated for 24 h. At the end of treatments, the cell medium was collected and kept at −80° C. until use for dosage. Then, cells were rinsed once with PBS and extracted in 100 μL of Laemmli buffer (10 mM Tris, 20% glycerol and 2% Sodium dodecyl sulfate) using a cell-scraper. The cell lysate was further sonicated (30 pulses of 0.5 s, 60 Hz) for 5 min. Total protein concentration was determined using the Pierce BCA Protein Assay Kit (Thermo scientific) according to the manufacturer's instructions. Samples were stored at −80° C. until analysis.
(§4) Western Blot Analysis. Cell protein lysates were prepared for western-blot analysis by diluting the sample with 1 volume of NuPAGE® lithium dodecyl sulfate (LDS) 2× sample buffer supplemented with 20% NuPAGE® sample reducing agents (Invitrogen). Samples were heat 10 min at 100° C. 10 μg of total proteins per well were loaded onto a precast 4-12% Criterion XT Bis-Tris polyacrylamide gel (Bio-Rad) and electrophoresis was achieved after applying a tension of 150 V during 90 min using a Criterion electrophoresis Cell with the NuPAGE® MOPS SDS running buffer (1×). Proteins were transferred to a nitrocellulose membrane of […] pore size (G&E Healthcare) using the Criterion blotting system and applying a tension of 100 V for 45 min. To resolve proteins of low molecular weights such as carboxy-terminal fragments of APP, 12% Criterion XT Bis-Tris polyacrylamide gels (Bio-Rad) were used and electrophoresis was performed during 70 min at 150 V in a NuPAGE® MES SDS running buffer (1×). Proteins were transferred to a nitrocellulose membrane of 0.2 μm pore size (G&E Healthcare) at 100 V for 40 min. Molecular weights calibration was achieved using molecular weight markers (Novex and Magic Marks, Life Technologies). Protein transfer and quality were determined by a reversible Ponceau Red coloration (0.2% Xylidine Ponceau Red and 3% Trichloroacetic acid). Membranes were then blocked in 25 mM Tris-HCl pH 8.0, 150 mM NaCl, 0.1% Tween-20 (v/v) (TBS-T) and 5% (w/v) of skimmed milk (TBS-M) or 5% (w/v) of bovine serum albumin (TBS-BSA) depending on the antibody during 1 h. Membrane was rinsed three-times 10 min in TBS-T before incubation with the primary antibody overnight at 4° C. Membrane was rinsed 3 times 10 min with TBS-T and then incubated with the secondary antibody for 45 min at room temperature (RT). […] Quantifications of protein expression levels were performed with ImageJ Software (NIH). […]

AICD = AICD by Western blot in SY5Y-APP695WT cells; type: cell-based, human; conditions: AICD increase compared to chloroquine ([AICD]compound/[AICD]CQ) at 3 μM; mean of at least three experiments
Description: as §1, §2, §3, §4

Aβ1-42 peptide secretion = assay: Quantification of secreted Aβ1-42 by ELISA in SY5Y-APP695WT cells; type: cell-based; conditions: Homo sapiens; concentration inhibiting 50% of Aβ1-42 peptide secretion in SY5Y cells; 24 h treatment; mean ± SD of at least two experiments in triplicate
Description: (§5) Cell culture and treatment. The human neuroblastoma cell line […] was maintained in Dulbecco's modified Eagle medium (DMEM, high glucose, pyruvate-GIBCO by Life Technologies) supplemented with 10% foetal bovine serum, 2 mM L-glutamine, 1 mM non-essential amino acids and penicillin/streptomycin (GIBCO by Life Technologies) at 37° C. in a 5% CO2 humidified incubator. […] cells were maintained in 75 cm^2 culture flasks (Falcon) with supplemented DMEM medium until they reached 80% of confluence 24 h before treatment. For compounds treatment, a 10 mM stock solution was diluted in freshly supplemented DMEM medium to obtain the precise final concentration of drug. Bafilomycin A1 (BafA1), the vacuolar […] type H+ ATPase inhibitor, was purchased from Merck Millipore and was used at a final dilution of 100 nM. For drug treatment, cells were plated at a rate of 5·10^5 cells per well into 12-well plates (Falcon) and cultured with 1 mL supplemented DMEM cell medium for 24 h before drug exposure. The following day, cell medium was replaced with fresh medium containing drugs diluted at the indicated concentrations. Cells were treated for 24 h. At the end of treatments, the cell medium was collected and kept at -80° C. until use for dosage. Then, cells were rinsed once with PBS and extracted in 100 μL of Laemmli buffer (10 mM Tris, 20% glycerol and 2% Sodium dodecyl sulfate) using a cell-scraper. The cell lysate was further sonicated (30 pulses of 0.5 s, 60 Hz) for 5 min. Total protein concentration was determined using the Pierce BCA Protein Assay Kit (Thermo scientific) according to the manufacturer's instructions. Samples were stored at -80° C. until analysis. Quantification of secreted Aβ1-40/1-42 and sAPPα/sAPPβ. Conditioned media of […] collected at the end of treatments were centrifuged at 1000 g for 5 min to eliminate cells debris. Aβ1-40 and Aβ1-42 peptide concentrations in […] were determined using amyloid-beta 40 and 42 Human ELISA kits (Invitrogen) according to the manufacturer's instructions after 1:10 and 1:2 dilutions of supernatants in ELISA buffer, respectively. sAPPα and sAPPβ concentrations in ng/mL were determined using the sAPPα/sAPPβ kit (Meso Scale Diagnostics, MSD®) according to the manufacturer's instructions. Compounds of the invention (compounds 24-37, 41, 44 and 51-58) were evaluated for their ability to modulate APP processing on SY5Y human neuroblastoma cell line stably expressing the neuronal isoform of human wild-type APP695 (SYSY-APPwt). Aβ levels (Aβ1-40 and Aβ1-42) after treatment with reference and tested compounds were measured by ELISA (Table 2). […] APP carboxy-terminal fragments (αCTFs and AICD) were measured by Western blot and quantified. The effect of reference and tested compounds on αCTFs and AICD are expressed as the intensity of corresponding western-blot bands resulting from the secretase cleavages.

Aβ1-40 peptide secretion = assay: Quantification of secreted Aβ1-40 by ELISA in SY5Y-APP695WT cells; type: cell-based; conditions: Homo sapiens; concentration inhibiting 50% of Aβ1-40 peptide secretion in SY5Y cells; 24 h treatment; mean ± SD of at least two experiments in triplicate
Description: as §5

SMILES	IC50 (Aβ1-42 peptide secretion)	IC50 (Aβ1-40 peptide secretion)	CTFα vs CQ (3 μM) (CTFα)	AICD vs CQ (3 μM) (AICD)
CN(C)CCCNc1ccc(-n2ccc(CN(C)C)c2)cc1OCCN1CCCCC1 [Compound 55, 4-(3-[(dimethylamino)methyl]-1H-pyrrol-1-yl)-N-[3-(dimethylamino)propyl]-2-[2-(piperidin-1-yl)ethoxy]aniline]	8000 ± 1600 nM	6100 ± 700 nM	1.2	0.8
CN(C)Cc1ccccc1-c1ccc(NCCN2CCCCC2)c(OCCCCN2CCCCC2)c1 [Compound 35, 2′-((Dimethylamino)methyl)-3-(4-(piperidin-1-yl)butoxy)-N-(2-(piperidin-1-yl)ethyl)-[1,1′-biphenyl]-4-amine]	1600 ± 300 nM	1600 ± 100 nM	4.4	4.8
CN(C)CCCNc1ccc(-n2ccc(CN3CCCCC3)c2)cc1OCCN1CCCCC1 [Compound 56, N-[3-(Dimethylamino)propyl]-2-[2-(piperidin-1-yl)ethoxy]-4-[3-(piperidin-1-ylmethyl)-1H-pyrrol-1-yl]aniline]	6300 ± 700 nM	5300 ± 100 nM	2.5	2.7
c1cc(CN2CCCCC2)cc(-c2ccc(NCCCN3CCCCC3)c(OCCN3CCCCC3)c2)c1 [Compound 26, 2-[2-(1-piperidyl)ethoxy]-4-[3-(1-piperidylmethyl)phenyl]-N-[3-(1-piperidyl)propyl]aniline]	4800 ± 600 nM	4300 ± 700 nM	3.3	2.6

Second part, led by results:

IC50 (Aβ1-42 peptide secretion)	IC50 (Aβ1-40 peptide secretion)	SMILES	CTFα vs CQ (3 μM) (CTFα)	AICD vs CQ (3 μM) (AICD)
2000 ± 100 nM	2100 ± 300 nM	CN(C)Cc1ccccc1-c1ccc(NCCCN2CCCCC2)c(OCCCN2CCCCC2)c1 [Compound 32, 2′-((Dimethylamino)methyl)-3-(3-(piperidin-1-yl)propoxy)-N-(3-(piperidin-1-yl)propyl)-[1,1′-biphenyl]-4-amine]	4.5	5.1
1700 ± 400 nM	1500 ± 100 nM	CN(C)Cc1ccc(-c2ccc(NCCCN3CCCCC3)c(OCCN3CCCCC3)c2)cc1 [Compound 25, 4-(4-[(Dimethylamino)methyl]phenyl)-2-[2-(piperidin-1-yl)ethoxy]-N-[3-(piperidin-1-yl)propyl]aniline]	2.1	2.5
1200 ± 300 nM	1500 ± 300 nM	CN(C)Cc1ccccc1-c1cccc(OCCN2CCCCC2)c1 [Compound 41, N,N-Dimethyl-1-(3′-(2-(piperidin-1-yl)ethoxy)-[1,1′-biphenyl]-2-yl)methanamine]	0.6	0.7
1800 ± 700 nM	2000 ± 200 nM	CN(C)Cc1ccccc1-c1ccc(NCCN2CCCCC2)c(OCCCN2CCCCC2)c1 [Compound 34, 2′-((Dimethylamino)methyl)-N-(2-(piperidin-1-yl)ethyl)-3-(3-(piperidin-1-yl)propoxy)-[1,1′-biphenyl]-4-amine]	4.5	3.4
3600 ± 100 nM	3900 ± 1000 nM	CN(C)Cc1ccccc1-c1ccc(NCCCN2CCCCC2)cc1 [Compound 44, 2′-((Dimethylamino)methyl)-N-(3-(piperidin-1-yl)propyl)-[1,1′-biphenyl]-4-amine]	0.9	0.8
